For one data set, the target named is T1, human OAT3 (Homo sapiens, UniProt Q8TCC7).
T1 sequence (Q8TCC7 1-542): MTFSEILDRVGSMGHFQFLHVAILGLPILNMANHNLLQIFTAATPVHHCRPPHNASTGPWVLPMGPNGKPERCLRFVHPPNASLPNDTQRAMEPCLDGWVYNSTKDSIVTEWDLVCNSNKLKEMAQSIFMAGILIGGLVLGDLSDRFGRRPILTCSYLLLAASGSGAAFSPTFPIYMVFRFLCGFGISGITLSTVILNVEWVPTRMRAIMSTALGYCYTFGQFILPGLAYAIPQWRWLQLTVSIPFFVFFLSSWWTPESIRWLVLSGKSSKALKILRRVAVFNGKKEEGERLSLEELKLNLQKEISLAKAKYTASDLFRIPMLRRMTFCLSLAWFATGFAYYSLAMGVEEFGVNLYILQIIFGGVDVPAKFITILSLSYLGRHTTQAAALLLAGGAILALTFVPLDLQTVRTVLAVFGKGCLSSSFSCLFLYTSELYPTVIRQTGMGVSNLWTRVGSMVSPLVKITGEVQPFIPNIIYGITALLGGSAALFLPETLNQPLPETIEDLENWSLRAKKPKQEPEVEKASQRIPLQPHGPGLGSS
The data set can be described thus: Inhibition of OAT3-mediated 6-carboxyfluorescein. To be noted: read-out: Ki (OAT3).

The conditions of data set [1]: in vivo.
The target of a further data set is T2, human OAT1 (Homo sapiens, UniProt Q4U2R8).
T2 sequence (Q4U2R8 1-563): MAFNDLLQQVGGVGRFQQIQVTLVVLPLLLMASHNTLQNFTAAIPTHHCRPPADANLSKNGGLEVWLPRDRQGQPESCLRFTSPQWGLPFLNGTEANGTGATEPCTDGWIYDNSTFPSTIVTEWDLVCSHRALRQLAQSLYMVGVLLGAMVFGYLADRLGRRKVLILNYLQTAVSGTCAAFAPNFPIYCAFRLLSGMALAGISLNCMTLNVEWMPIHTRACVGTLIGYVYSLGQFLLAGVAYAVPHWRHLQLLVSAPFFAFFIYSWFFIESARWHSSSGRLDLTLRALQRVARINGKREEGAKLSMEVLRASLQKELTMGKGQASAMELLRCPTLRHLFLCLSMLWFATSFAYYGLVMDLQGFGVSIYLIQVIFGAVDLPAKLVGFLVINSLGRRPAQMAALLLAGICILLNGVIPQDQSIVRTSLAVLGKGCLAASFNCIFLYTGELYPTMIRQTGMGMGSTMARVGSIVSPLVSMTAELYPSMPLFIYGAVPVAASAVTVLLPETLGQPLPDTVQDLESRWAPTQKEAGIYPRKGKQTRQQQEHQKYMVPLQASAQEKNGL
As to the kind of experiment: Inhibition of OAT1-mediated 6-carboxyfluorescein. To be noted: read-out: Ki (OAT1).

For data set [2] the following is noted: plasma; ref https://doi.org/10.1002/cpdd.132; cited from earlier work.

This is an account of results in publication PMC8177813 (Journal of pharmaceutical sciences, 2020).

Where a name gives a salt, the structure may show the parent alone. Read-outs that look alike come from different tables or passages of the source. Where only a bound is given, the exact number is not on record here.

A word on the Ki: it is the equilibrium dissociation constant of an inhibitor or competing ligand from its target. The Cmax is the maximum level reached in the sampled fluid or tissue. With `C[C@]12CC[C@H](OS(=O)(=O)O)CC1=CC[C@@H]1[C@@H]2CC[C@]2(C)C(c3ccc[n+]([O-])c3)=CC[C@@H]12` [Abiraterone N-oxide sulfate], the Ki at human OAT3 is 1360 nM; at human OAT1 (HEK293 cells stably transfected with OAT1, 2 μM 6CF, 3 min, 37 °C, […]), over 100000 nM. In data set [1], the “Cmax,u” value was 0.092 µM. The Cmax in data set [2] was 9.2 µM.

With `C[C@]12CC[C@H](OS(=O)(=O)O)CC1=CC[C@@H]1[C@@H]2CC[C@]2(C)C(c3cccnc3)=CC[C@@H]12` [Abiraterone sulfate], the Ki at human OAT3 came to 1830 nM; on human OAT1 it was 38200 nM. In addition, the “Cmax,u” value in data set [1] came out at 0.25 µM. For the same molecule, the Cmax in data set [2] was 25 µM.
